Consider three compounds from PMC9317327, “Functional Characterization, Antimicrobial Effects, and Potential Antibacterial Mechanisms of NpHM4, a Derived Peptide of Nautilus pompilius Hemocyanin” (Marine Drugs, 2022).

Values after ≈ are worked out from the molar mass of the structure shown. Where a SMILES comes first, the peptide text is derived from it. Some results are limits rather than exact numbers.

In assay [1] the test system is Vibrio parahaemolyticus 2013V-1174. The class given is cell-based. The note with it: 2 h.
The subject of a further assay is Escherichia coli (DH5α). Type of assay: cell-based. The note with it: DH5α, 2 h, pH 7.2. The procedure: (§1) The antimicrobial activity of the peptides was determined against Gram-negative bacteria, including V. alginolyticus (A056), E. coli (DH5α), and V. parahaemolyticus (2013V-1174), which were obtained from the South China Sea Institute of Oceanology, Chinese Academy of Sciences. The activity was also tested against the Gram-positive bacteria S. aureus ATCC 25923 and B. subtilis ATCC 6051. To assess the antimicrobial activities of the peptides, bacterial cells were cultured to the logarithmic growth phase and then diluted to 10^6–1.5 × 10^7 CFU/mL with PBS (0.01 M, pH 7.2). Equal volumes of serially diluted peptides, with concentrations ranging from 30 to 450 μM in PBS, and bacteria suspension were mixed and incubated at room temperature for 2 h, respectively. Then, 6 μL of each serially diluted mixture was plated on sterile 12-well agar plates, followed by incubation for 11 to 12 h, and the colonies were assessed to determine the MICs and MBCs. The MICs were expressed (in µM) as an [a]–[b] concentration interval, where [a] is the highest peptide concentration at which bacteria were growing and [b] is the lowest concentration that caused 100% growth inhibition. Cultures without peptides were employed as controls. All the tests were performed in triplicate and repeated three times.

Assay [2] deals with Vibrio parahaemolyticus 2013V-1174. The class given is cell-based. The note with it: 2 h, pH 7.2. As to the method: as §1
Assay [3] concerns Staphylococcus aureus ATCC 25923. The class given is cell-based. The note with it: ATCC 25923, 2 h, pH 7.2. The procedure:
as §1

For assay [4], the system named is Bacillus subtilis ATCC 6051. Type of assay: cell-based. The note with it: ATCC 6051, 2 h, pH 7.2. As to the method: as §1
The test system of assay [5] is Vibrio alginolyticus (A056). The class given is cell-based. The note with it: 2 h, pH 7.2. As to the method:
as §1

The test system of assay [6] is Vibrio alginolyticus (A056). Type of assay: cell-based. The note with it: 2 h.
Another assay has as its system Staphylococcus aureus. The note with it: cited from earlier work.
A further assay has as its system Bacillus megaterium. The note with it: cited from earlier work.
A further assay deals with E. coli. The note with it: cited from earlier work. The procedure: In order to explore the antibacterial activity of the six predicted AMPs, the minimal inhibitory concentrations (MICs) and the minimal bactericidal concentrations (MBCs) of chemically synthesized NpHN1–NpHN6 peptides were measured against Gram-negative bacteria (Vibrio alginolyticus and Escherichia coli). […] The GR ...

Consider `CC[C@H](C)[C@H](NC(=O)CNC(=O)[C@H](Cc1c[nH]cn1)NC(=O)[C@H](CCCNC(=N)N)NC(=O)[C@H](CC(C)C)NC(=O)[C@H](Cc1ccccc1)NC(=O)CNC(=O)[C@H](C)NC(=O)[C@H](Cc1ccccc1)NC(=O)[C@@H](NC(=O)[C@@H](N)CCCNC(=N)N)C(C)C)C(=O)N[C@@H](CCCCN)C(=O)N[C@@H](CCCNC(=N)N)C(=O)N[C@@H](CO)C(=O)N[C@@H](CCCNC(=N)N)C(=O)O` [NpHM4] (H-RVFAGFLRHGIKRSR-OH), for which the results for the IC50 in [1] and in assay [6] were 32.1 µM and 12.2 µM, respectively. The MBC in the assay on Escherichia coli (DH5α) was over 150 µM; in assay [2] it was 50 µM (≈ 90 µg/mL); in [3] it was over 50 µM; in [4], over 50 µM; in [5] it was 30 µM (≈ 54 µg/mL). The MIC in the assay with Escherichia coli (DH5α) was 50 to 150 µM; in [2], 15 to 45 µM; in assay [3], over 50 µM; in [4], over 50 µM; in assay [5] it was 5 to 25 µM.
Take `CC[C@H](C)[C@H](NC(=O)CNC(=O)[C@H](Cc1c[nH]cn1)NC(=O)[C@H](CCCNC(=N)N)NC(=O)[C@H](CC(C)C)NC(=O)[C@H](Cc1ccccc1)NC(=O)CNC(=O)[C@H](C)NC(=O)[C@H](CCCNC(=N)N)NC(=O)[C@@H](NC(=O)[C@@H](N)CCCNC(=N)N)C(C)C)C(=O)N[C@@H](CCCCN)C(=O)N[C@@H](CCCNC(=N)N)C(=O)N[C@@H](CO)C(=O)N[C@@H](CCCNC(=N)N)C(=O)O` [NpHM7] (H-RVRAGFLRHGIKRSR-OH): the MBC (in the assay on Escherichia coli (DH5α); in assay [2]; in [3]; in assay [4]; in [5]) was over 150 µM throughout. The MIC (against Escherichia coli (DH5α); in [2]; in assay [3]; in [4]; in [5]) was over 150 µM throughout.
Turning to GSTSFHLIYNKWFAVKRRRKR [GR21], the MBC entry in the assay with Staphylococcus aureus, in the assay on Bacillus megaterium and with E. coli was “below 25 μM” throughout.

In general, IC50 refers to the concentration needed to halve the response being measured. The term MBC denotes the lowest tested concentration that kills the bacteria rather than only halting them. As a reminder, the MIC is the least concentration at which growth counts as inhibited. A high value points to a less susceptible organism.
